{
  "source": "patent US8138170B2",
  "about": "“Immunosuppressive Ningalin compounds” (Memorial Sloan-Kettering Cancer Center, priority 2004, dated 2012)",
  "key": {"[1]": {"tested_on": "carrageenan-induced paw edema", "test": "Carrageenan-induced paw edema", "format": "in vivo, B6D2F1 mice", "conditions": "for Pedis Area: individual mice 1-4; for Pedis Area, Mean: mean of 4 mice", "procedure": "Carrageene (1%, 30 μl) was injected i.m. into the pedis of B6D2F1 mice (4 mice/group) to induced edemic inflammation at 0 hours. N3, N5 (i.p. injection) or oral administration of aspirin 500 mg/kg, or topical application of hydrocortisone cream (1%) or Lidex cream (0.05%) to the pedis skins were given at −1, 6, 12 and 24 hours. The control mice received dimethylsulfoxide (the vehicle of ningalins). The pedis areas (in mm^2) were measured at 0, 3, 6, 12, 24, 36 and 48 hours."}, "C57BL/6 heart allografts": {"tested_on": "C57BL/6 heart allografts", "test": "Heterotopic heart transplantation in mice", "format": "in vivo, Balb/c mice", "procedure": "(§1) Heterotopic heart transplantation was performed in rats and mice. In brief, heart transplantation was performed by previously described modified method. Hearts harvested from donors were perfused with chilled saline and immediately transplanted to recipients under full anesthesia. Suture 10-0 in rats and 12-0 in mice (Ethicon; Somerville, N.J.) was used to perform anastomosis of aorta to aorta and pulmonary artery to vena cava. Heartbeat was evaluated daily and the day of complete cessation was considered rejection. Animals that died within three days after transplantation were excluded from the analysis (less than 5%).\nMice were also transplanted with heart allografts. In particular, untreated Balb/c (H-2^d) recipients rejected C57BL/6 (H-2^b) heart allografts at a MST of 7.8±0.84 days (n=5). Treatment with 40 mg/kg N5, QDx7, extended heart allograft survival to 13.33±2.52 days, which increased life span 71% (n=3; p<0.03).\nMice heart allografts were treated with 20 mg/kg of N3, QDx7, i.p. In particular, untreated Balb/c (H-2^d) recipients rejected C57BL/6 ([…]) heart allografts at a MST of […] days (n=5). Treatment with 20 mg/kg of N3 (i.e., one-half of dose of N5) extended heart allograft survival to 18.75±3.86 days (n=4; p<0.0005), an increase in lifespan of 140%."}, "[2]": {"test": "Cytotoxicity measured by cell proliferation inhibition", "format": "cell-based"}, "human lymphocytes": {"tested_on": "human lymphocytes", "test": "Inhibition of PHA-stimulated lymphocyte proliferation ([3H]thymidine incorporation)", "format": "cell-based", "conditions": "PHA-stimulated human lymphocyte proliferation; read-out: Immunosuppressive Effect (IC50 in μM) [B]"}, "LEW kidney allografts": {"tested_on": "LEW kidney allografts", "test": "Orthotopic kidney transplantation in rats", "format": "in vivo, ACI rats", "procedure": "Orthotopic kidney transplantation was performed in rats. In particular, the left kidney of donor was perfused through the aorta with heparinized saline (4° C.) and then harvested after the renal artery, renal vein, and ureter were cut off. End-to-end anastomosis of donor and recipient renal arteries and veins were performed using 10-0 nylon suture (Ethicon; Somerville, N.J.). The recipients' native kidneys were removed on the day of transplantation. Animals that died within three days after transplantation were excluded from the analysis (less than 5%).\nThe effect of N5 (administered in DMSO, 20 mg/kg, i.p. QDx7) on kidney allograft survival was examined. Although untreated ACI recipients acutely rejected LEW kidney allografts at 8.8±0.75 days, a 7-day i.p. daily treatment extended survivals to 26.50±2.12 days, which increased lifespan 200% (n=2; p<0.03)."}, "[3]": {"tested_on": "Lewis (LEW) heart allografts", "test": "Heterotopic heart transplantation in rats", "format": "in vivo, Rat ACI recipients", "procedure": "as §1\nRat ACI (RT1*) recipients of Lewis (LEW; RT1^1) heart allografts were untreated or were treated for 7 days by daily (QDx7) i.p. injections with 20 mg/kg N5. Untreated recipients rejected heart allografts in a mean survival time (MST) of 8.40±0.55 (n=5)."}},
  "note": "“And” between values parts separate entries of the source, which are not always exact repeats. Equal values may be shown once.",
  "data": [
    {"smiles": "COc1ccc(CCn2c(C(=O)N(C)C)c(-c3ccc(OC)c(OC)c3)c3c4cc(OC)c(OC)cc4oc(=O)c32)cc1OC", "note": "[Ningalin N5, 1-(3,4-Dimethoxy-phenyl)-3-[2-(3,4-dimethoxy-phenyl)-ethyl]-7,8-dimethoxy-4-oxo-3,4-dihydro-5-oxa-3-aza-cyclopenta[α]naphthalene-2-carboxylic acid dimethylamide]", "values": [
      {"measurement": "Pedis Area", "setting": "[1]; 0 hr, aspirin 500 mg/kg oral, N3 100 mg/kg i.p., N5 50 mg/kg i.p., hydrocortisone cream 1%, Lidex cream 0.05% topical, given at −1, 6, 12, 24 hours", "value": 100, "unit": "mm^2"},
      {"measurement": "Pedis Area, Mean", "setting": "[1]; 0 hr, doses as E35", "value": 100, "unit": "mm^2"},
      {"measurement": "Pedis Area", "setting": "[1]; 3 hr, doses as E35", "value": "137.1 mm^2 and 139.2 mm^2 and 143.9 mm^2 and 132 mm^2"},
      {"measurement": "Pedis Area, Mean", "setting": "[1]; 3 hr, doses as E35", "value": 138.1, "unit": "mm^2"},
      {"measurement": "Pedis Area", "setting": "[1]; 6 hr, doses as E35", "value": "138.1 mm^2 and 144.3 mm^2 and 146.9 mm^2 and 145.4 mm^2"},
      {"measurement": "Pedis Area, Mean", "setting": "[1]; 6 hr, doses as E35", "value": 143.7, "unit": "mm^2"},
      {"measurement": "Pedis Area", "setting": "[1]; 12 hr, doses as E35", "value": "125.7 mm^2 and 124.7 mm^2 and 140.8 mm^2 and 141.2 mm^2"},
      {"measurement": "Pedis Area, Mean", "setting": "[1]; 12 hr, doses as E35", "value": 133.1, "unit": "mm^2"},
      {"measurement": "Pedis Area", "setting": "[1]; 24 hr, doses as E35", "value": "125.7 mm^2 and 161.6 mm^2 and 128.6 mm^2 and 142.3 mm^2"},
      {"measurement": "Pedis Area, Mean", "setting": "[1]; 24 hr, doses as E35", "value": 129.6, "unit": "mm^2"},
      {"measurement": "Pedis Area", "setting": "[1]; 36 hr, doses as E35", "value": "120 mm^2 and 118.6 mm^2 and 127.6 mm^2 and 142.3 mm^2"},
      {"measurement": "Pedis Area, Mean", "setting": "[1]; 36 hr, doses as E35", "value": 127.1, "unit": "mm^2"},
      {"measurement": "Pedis Area", "setting": "[1]; 48 hr, doses as E35", "value": "120 mm^2 and 117.5 mm^2 and 130.6 mm^2 and 142.3 mm^2"},
      {"measurement": "Pedis Area, Mean", "setting": "[1]; 48 hr, doses as E35", "value": 127.6, "unit": "mm^2"},
      {"measurement": "anti-inflammatory effect (FIG. 3)", "setting": "[1]; N5 50 mg/kg i.p., N3 100 mg/kg i.p., all drugs: at 12-48 hours", "value": "produced an anti-inflammatory effect"},
      {"measurement": "MST ± SD days (heart allograft survival)", "setting": "C57BL/6 heart allografts; B6 heart to Balb/c, N5 40 mg/kg QDx7, 40 mg/kg", "value": "13.33±2.52 days and 13.35 ± 2.52 days"},
      {"measurement": "increased life span", "setting": "C57BL/6 heart allografts; heart allograft, N5 40 mg/kg QDx7, vs untreated", "value": 71, "unit": "%"},
      {"measurement": "Survival days (individual animals)", "setting": "C57BL/6 heart allografts; heart, N5 40 mg/kg, 40 mg/kg", "value": "11 days and 13 days and 16 days"},
      {"measurement": "IC50", "setting": "[2]", "value": "17.1 ± 4.6", "unit": "µM"},
      {"measurement": "IC50", "setting": "human lymphocytes", "value": "0.17 ± 0.01", "unit": "µM"},
      {"measurement": "MST ± SD days (kidney allograft survival)", "setting": "LEW kidney allografts; ACI recipients of LEW kidney, N5 in DMSO 20 mg/kg i.p. QDx7", "value": "26.50±2.12", "unit": "days"},
      {"measurement": "increased life span", "setting": "LEW kidney allografts; kidney allograft, N5 20 mg/kg i.p. QDx7, vs untreated", "value": 200, "unit": "%"},
      {"measurement": "Survival days (individual animals)", "setting": "LEW kidney allografts; kidney, N5 20 mg/kg, 20 mg/kg", "value": "26 days and 28 days"},
      {"measurement": "MST ± SD days (heart allograft survival)", "setting": "[3]; ACI recipients of LEW heart, N5 20 mg/kg i.p. QDx7, 20 mg/kg", "value": "18.67±2.52 days and 18.67 ± 2.5 days"},
      {"measurement": "increased life span", "setting": "[3]; heart allograft, N5 20 mg/kg i.p. QDx7, vs untreated", "value": 122, "unit": "%"},
      {"measurement": "Survival days (individual animals)", "setting": "[3]; heart, N5 20 mg/kg, 20 mg/kg", "value": "18 days and 19 days and 21 days"}
    ]}
  ]
}
